In patent US20230172204A1 (BASF SE, priority 2020, published 2023):

Experiments:
[1] = tested on: Phakopsora pachyrhizi (F129L); test: Protective control of soybean rust on soybeans (PHAKPA P2); assay type: in vivo; settings: for % PHAKPA (F129L) Disease level P2 at 4 ppm: protective P2, 4 ppm; for % PHAKPA (F129L) Disease level P2 at 4 ppm / % PHAKPA (F129L) Disease level P2 at 16 ppm: soybean rust F129L; for % PHAKPA (F129L) Disease level P2 at 16 ppm: protective P2, 16 ppm; for PHAKPA (F129L) Disease level (%) P2 at 4 ppm / PHAKPA (F129L) Disease level (%) P2 at 16 ppm: P2 protective, % diseased leaf area
[2] = tested on: Phakopsora pachyrhizi (F129L); test: Protective control of soybean rust on soybeans (PHAKPA P6); assay type: in vivo; settings: for % PHAKPA (F129L) Disease level P6 at 4 ppm: protective P6, 4 ppm; for % PHAKPA (F129L) Disease level P6 at 4 ppm / % PHAKPA (F129L) Disease level P6 at 16 ppm: soybean rust F129L; for % PHAKPA (F129L) Disease level P6 at 16 ppm: protective P6, 16 ppm; for PHAKPA (F129L) Disease level (%) P6 at 4 ppm / PHAKPA (F129L) Disease level (%) P6 at 16 ppm: P6 protective, % diseased leaf area

| Structure (SMILES) | % PHAKPA (F129L) Disease level P2 at 4 ppm [1] | % PHAKPA (F129L) Disease level P2 at 16 ppm [1] | % PHAKPA (F129L) Disease level P6 at 4 ppm [2] | % PHAKPA (F129L) Disease level P6 at 16 ppm [2] | PHAKPA (F129L) Disease level (%) P2 at 4 ppm [1] | PHAKPA (F129L) Disease level (%) P6 at 4 ppm [2] | PHAKPA (F129L) Disease level (%) P2 at 16 ppm [1] | PHAKPA (F129L) Disease level (%) P6 at 16 ppm [2] |
| --- | --- | --- | --- | --- | --- | --- | --- | --- |
| CNC(=O)/C(=N/OC)c1cccc(C)c1CO/N=C(\C)c1cc(C2CC2)cc(C(F)(F)F)c1 [compound 150] | 56% | 8% | 70% | 29% |  |  |  |  |
| CNC(=O)/C(=N/OC)c1ccccc1CO/N=C(\C)c1ccc(Cl)cc1 [reference compound] |  |  |  |  | 40% | 80% |  |  |
| CNC(=O)/C(=N/OC)c1cccc(C)c1CO/N=C(\C)c1ccc(C)cc1C(F)(F)F [compound 327] | 23% | 3% | 48% | 4% |  |  |  |  |
| C#Cc1cc(C#C)cc(/C(C)=N/OCc2c(C)cccc2/C(=N\OC)C(=O)NC)c1 [compound 193] | 15% | 0% | 14% | 0% |  |  |  |  |
| CO/N=C(/C(=O)OC)c1ccccc1CO/N=C(\C)c1ccc(C)cc1 [reference compound] |  |  |  |  |  |  | 25% | 10% |
| CO/N=C(/C(=O)OC)c1cccc(C)c1CO/N=C(\C)c1c(Cl)cc(Cl)cc1OC(F)(F)F [compound 427] | 100% | 90% | 60% | 47% |  |  |  |  |
| CO/N=C(/C(=O)OC)c1cccc(C)c1CO/N=C(\C)c1ccccc1CC(F)(F)F [compound 222] | 100% | 57% | 100% | 93% |  |  |  |  |
| CO/N=C(/C(=O)OC)c1cccc(C)c1CO/N=C(\C)c1cc(C(F)(F)F)cc(C(F)(F)F)c1 [compound 34] | 100% | 90% | 90% | 83% |  |  |  |  |
| CO/N=C(/C(=O)OC)c1cccc(C)c1CO/N=C(\C)c1ccc(OC)cc1OC(F)(F)F [compound 373] | 77% | 27% | 100% | 38% |  |  |  |  |
| CO/C=C(/C(=O)OC)c1cccc(C)c1CO/N=C(\C)c1c(Cl)ccc(Cl)c1OC(F)(F)F [compound 444] | 100% | 47% | 83% | 53% |  |  |  |  |
| CNC(=O)/C(=N/OC)c1cccc(C)c1CO/N=C(\C)c1ccc(-c2ccc(F)cc2)cc1C(F)(F)F [compound 426] | 7% | 1% | 27% | 10% |  |  |  |  |
| CNC(=O)/C(=N/OC)c1cccc(C)c1CO/N=C(\C)c1ccc(Oc2ccc(Cl)cc2)cc1C(F)(F)F [compound 336] | 63% | 20% | 50% | 17% |  |  |  |  |
| CO/N=C(/C(=O)OC)c1cccc(C)c1CO/N=C(\C)c1ccc(Cl)c(C(F)(F)F)c1 [compound 59] | 67% | 20% | 63% | 11% |  |  |  |  |
| CO/N=C(/C(=O)OC)c1cccc(C)c1CO/N=C(\C)c1ccc(OC)cc1 [Ex. 216] | 77% | 13% | 80% | 29% |  |  | 20% | 15% |
| CO/N=C(/C(=O)OC)c1cccc(C)c1CO/N=C(\C)c1cc(F)ccc1Br [compound 254] | 100% | 77% | 100% | 100% |  |  |  |  |
| CO/N=C(/C(=O)OC)c1cccc(C)c1CO/N=C(\C)c1cccc(-c2noc(C(F)(F)F)n2)c1 [compound 66] | 100% | 70% | 93% | 87% |  |  |  |  |
| CNC(=O)/C(=N/OC)c1cccc(C)c1CO/N=C(\C)c1cccc(-c2noc(C(F)(F)F)n2)c1 [compound 67] | 67% | 2% | 80% | 30% |  |  |  |  |
| CO/N=C(/C(=O)OC)c1ccccc1CO/N=C(\C)c1cc(F)ccc1F [reference compound] |  |  |  |  |  |  | 1% | 22% |
| CCC/C(=N\OCc1c(C)cccc1/C(=N\OC)C(=O)NC)c1ccccc1 [compound 388] | 1% | 0% | 3% | 0% |  |  |  |  |

| Structure (SMILES) | % PHAKPA (F129L) Disease level P2 at 4 ppm [1] | % PHAKPA (F129L) Disease level P2 at 16 ppm [1] | % PHAKPA (F129L) Disease level P6 at 4 ppm [2] | % PHAKPA (F129L) Disease level P6 at 16 ppm [2] | PHAKPA (F129L) Disease level (%) P2 at 4 ppm [1] | PHAKPA (F129L) Disease level (%) P6 at 4 ppm [2] | PHAKPA (F129L) Disease level (%) P2 at 16 ppm [1] | PHAKPA (F129L) Disease level (%) P6 at 16 ppm [2] |
| --- | --- | --- | --- | --- | --- | --- | --- | --- |
| CO/N=C(/C(=O)OC)c1cccc(C)c1CO/N=C(\C)c1ccc(Cl)cc1 [Ex. 154] | 30% | 13% | 63% | 9% |  |  | 25% | 17% |
| CNC(=O)/C(=N/OC)c1cccc(C)c1CO/N=C(\C)c1c(F)cccc1OC(F)(F)F [compound 325] | 24% | 4% | 22% | 1% |  |  |  |  |
| COC=C(C(=O)OC)c1cccc(C)c1CON=C(C)c1ccc(OC)cc1C(F)(F)F [compound 464] | 1% | 0% | 8% | 0% |  |  |  |  |
| CNC(=O)/C(=N/OC)c1cccc(C)c1CO/N=C(\C)c1c(F)cccc1C(F)(F)F [compound 345] | 22% | 1% | 32% | 1% |  |  |  |  |
| CNC(=O)/C(=N/OC)c1ccccc1CO/N=C(\C)c1cccc(N2CC(F)(F)C2)c1 [reference compound] |  |  |  |  |  |  | 70% | 53% |
| CO/N=C(/C(=O)OC)c1cccc(C)c1CO/N=C(\C)c1cccc(C(C)C)c1 [compound 95] | 11% | 0% | 33% | 4% |  |  |  |  |
| CO/C=C(/C(=O)OC)c1ccccc1CO/N=C(\C)c1cccc(C(F)(F)F)c1 [reference compound] |  |  |  |  | 6% | 30% |  |  |
| CNC(=O)/C(=N/OC)c1cccc(C)c1CO/N=C(\C)c1ccc(OC(F)(F)F)cc1C [compound 261] | 70% | 9% | 87% | 32% |  |  |  |  |
| CO/N=C(/C(=O)OC)c1cccc(C)c1CO/N=C(\C)c1ccccc1OC(F)F [compound 253] | 100% | 87% | 100% | 57% |  |  |  |  |
| CNC(=O)/C(=N/OC)c1cccc(C)c1CO/N=C(\C)c1c(F)cccc1OC(F)F [compound 202] | 90% | 22% | 100% | 47% |  |  |  |  |
| CNC(=O)/C(=N/OC)c1cccc(C)c1CO/N=C(\C)c1cc(F)c(F)cc1C(F)(F)F [compound 410] | 9% | 0% | 35% | 1% |  |  |  |  |
| CO/N=C(/C(=O)OC)c1cccc(C)c1CO/N=C(\C)c1cccc(F)c1C(F)(F)F [compound 330] | 83% | 24% | 93% | 17% |  |  |  |  |
| CNC(=O)/C(=N/OC)c1cccc(C)c1CO/N=C(\C)c1cc(Br)cc(Br)c1 [compound 142] | 19% | 5% | 26% | 5% |  |  |  |  |
| C#Cc1cccc(/C(C)=N/OCc2c(C)cccc2/C(=N\OC)C(=O)OC)c1 [compound 53] | 63% | 17% | 100% | 47% |  |  |  |  |
| CNC(=O)/C(=N/OC)c1cccc(C)c1CO/N=C(\CC(F)(F)F)c1ccccc1 [compound 380] | 53% | 5% | 60% | 12% |  |  |  |  |
| C#Cc1ccccc1/C(C)=N/OCc1c(C)cccc1/C(=N\OC)C(=O)NC [compound 125] | 72% | 9% | 90% | 44% |  |  |  |  |
| CCc1cccc(/C(=N\OC)C(=O)NC)c1CO/N=C(\C)c1cccc(C(F)(F)F)c1 [compound 62] | 43% | 0% | 60% | 3% |  |  |  |  |
| CO/N=C(/C(=O)OC)c1ccccc1CO/N=C(\C)c1ccc(OC)cc1 [reference compound] |  |  |  |  |  |  | 67% | 33% |
